# In paper PMC8222254, “Self-assembly of an anion receptor with metal-dependent kinase inhibition and potent in vitro anti-cancer properties” (Nature Communications, 2021):
# Columns and labels:
# AMPK = target: T1, AMPK (Homo sapiens, UniProt Q13131); test: ADP-Glo Kinase Assay in presence of varying AMP; assay type: biochemical
# T1 construct: purchased Promega
# Procedure: ATP competition kinase assays were performed by the MRC Protein Phosphorylation and Ubiquitination Unit International Centre for Kinase Profiling (University of Dundee). Inhibition of recombinant human AMPK (α1β2γ1) by 10μM [L2Cu3]^6+ or [L2Zn3]^6+ was evaluated at five different ATP concentrations (0.5, 2, 20, 200 and 500 µM ATP). Substrate competition assays were performed using the ADP-Glo Kinase Assay (Promega) and recombinant human AMPK (α1β2γ1) (Promega) with concentrations of the provided AMPK substrate (SAMStide substrate, Promega) ranging from 1 to 15 mg/ml. Following pre-incubation of substrate with kinase for 5 min 10 µM [L2Cu3]^6+, [L2Zn3]^6+ or solvent control and 50 µM ATP was added to start the kinase reaction. For determination of the effects of AMP on AMPK inhibition by [L2Zn3]^6+, the ADP-Glo Kinase Assay (Promega) was performed in presence of varying of AMP (0, 80, 160 μM).
# [1] = 31P NMR study of hydrolysis of phosphate esters and phosphorylated amino acids
# Procedure: For ^1H NMR studies, reaction of [L2Zn3]^6+ with either Na2O3POPh and Bu4NH2PO4 was carried out in 10% D2O in CD3CN. The NMR solutions were prepared by dissolving the ligand L and Zn(C2H3O2)2 (in a ratio of 1:1.5) in CD3CN (600 µL). The relevant anion (0.5 equivalents w.r.t ligand) was dissolved in D2O (60 µL) and these solutions were then combined. Heating of the sample was carried out @ 80 °C in a water bath for the specified amount of time. For the ^31P NMR studies solutions were prepared by dissolving the ligand L and Zn(C2H3O2)2 (in a ratio of 1:1.5) in d6-DMSO (200 µL). The anion (0.5 equivalents w.r.t ligand) was dissolved in HEPES (600 µL, 60 mmol @ pH 7.4) and these solutions were then combined. Where required heating of the sample was carried out by incubating the sample @ 37 °C and/or a further 2 h @ 80 °C in a water bath.
# ARPE-19 = test: Metabolic flux analysis (Cell Energy Phenotype Assay, OCR/ECAR); assay type: cell-based, human; set-up: Baseline EACR / Mean Baseline EACR / Stressed OCR / Mean Stressed OCR / Stressed EACR / Mean Stressed EACR / Baseline OCR / Mean Baseline OCR: unit not given here; settings: for Baseline EACR / Baseline OCR / Stressed EACR / Stressed OCR / Mean Baseline EACR / Mean Baseline OCR / Mean Stressed EACR / Mean Stressed OCR: ARPE19 cells
# Procedure: ARPE-19 and HCT116 cells were seeded in 8-well XFp plates (Agilent) 48 h prior to metabolic flux analyses using the Agilent XFp extracellular flux analyser. Cell seeding densities were 2500 cells/well for ARPE-19 cells and 7500 cells/well for HCT116 cells in order to achieve equivalent cell confluency (~70% confluency and in log phase growth) at the time of analyses. Cells were treated with 25 μM of [L2Zn3]^6+ or solvent control (0.2% DMSO) for 1 h or 20 h before metabolic flux analyses using the Cell Energy Phenotype Assay (Agilent) in accordance with the manufacturer’s instructions. For determination of maximal respiratory and glycolytic rates (metabolic reserve) following real-time quantification of basal respiratory and glycolytic rates, a ‘metabolic stress mix’ of 1 µM oligomycin and FCCP (0.5 µM for ARPE-19, 0.25 µM for HCT116) was injected into the media.
# [2] = 1h exposure, mean of 3 runs (Fig. 9c)
# [3] = 20h exposure, mean of 3 runs (Fig. 9d)
# T1 sequence (Q13131 whole entry): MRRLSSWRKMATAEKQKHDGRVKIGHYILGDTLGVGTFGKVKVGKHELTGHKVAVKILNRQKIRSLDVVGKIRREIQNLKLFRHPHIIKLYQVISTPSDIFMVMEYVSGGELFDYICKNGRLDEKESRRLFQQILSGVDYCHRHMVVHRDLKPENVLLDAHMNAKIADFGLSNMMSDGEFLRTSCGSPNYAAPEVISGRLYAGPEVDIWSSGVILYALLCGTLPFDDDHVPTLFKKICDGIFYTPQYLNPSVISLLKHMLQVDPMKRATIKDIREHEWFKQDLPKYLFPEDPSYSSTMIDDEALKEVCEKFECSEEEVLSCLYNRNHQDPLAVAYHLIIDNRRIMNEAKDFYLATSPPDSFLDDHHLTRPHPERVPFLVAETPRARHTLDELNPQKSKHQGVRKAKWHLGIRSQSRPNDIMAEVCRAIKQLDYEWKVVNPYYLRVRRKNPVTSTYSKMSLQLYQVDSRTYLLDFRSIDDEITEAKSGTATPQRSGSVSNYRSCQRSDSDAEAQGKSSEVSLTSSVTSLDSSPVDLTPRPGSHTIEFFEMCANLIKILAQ
# T1 sequence (O43741 whole entry partner): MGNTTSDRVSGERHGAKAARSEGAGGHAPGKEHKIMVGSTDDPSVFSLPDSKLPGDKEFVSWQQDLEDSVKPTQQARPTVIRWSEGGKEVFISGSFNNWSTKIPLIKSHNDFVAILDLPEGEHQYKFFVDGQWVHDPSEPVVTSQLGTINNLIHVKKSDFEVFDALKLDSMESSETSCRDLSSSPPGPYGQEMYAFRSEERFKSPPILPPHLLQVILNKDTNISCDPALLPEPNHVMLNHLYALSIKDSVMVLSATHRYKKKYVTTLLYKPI
# T1 sequence (P54619 whole entry partner): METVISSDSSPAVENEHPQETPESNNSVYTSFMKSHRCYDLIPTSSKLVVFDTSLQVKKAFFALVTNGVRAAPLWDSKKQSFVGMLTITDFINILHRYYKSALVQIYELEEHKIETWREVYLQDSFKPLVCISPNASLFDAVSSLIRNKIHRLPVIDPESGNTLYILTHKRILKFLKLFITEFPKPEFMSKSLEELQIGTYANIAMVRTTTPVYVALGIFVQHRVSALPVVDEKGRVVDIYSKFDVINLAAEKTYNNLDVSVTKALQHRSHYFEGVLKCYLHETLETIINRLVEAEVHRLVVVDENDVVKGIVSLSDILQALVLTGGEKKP
structure (smiles),measurement,setting,value
CC(=O)[O-].CC(=O)[O-].CC(=O)[O-].CC(=O)[O-].CC(=O)[O-].CC(=O)[O-].[Zn+2].[Zn+2].[Zn+2].c1ccc(-c2csc(NCCN(CCNc3nc(-c4ccccn4)cs3)CCNc3nc(-c4ccccn4)cs3)n2)nc1.c1ccc(-c2csc(NCCN(CCNc3nc(-c4ccccn4)cs3)CCNc3nc(-c4ccccn4)cs3)n2)nc1 [[L2Zn3]6+],AMPK activity remaining,AMPK; in the absence of AMP,~ 30%
same,AMPK activity remaining,AMPK; in the presence of AMP (80 or 160 microM),20-30%
same,dephosphorylation of serine-OPO3 2- (31P NMR),[1]; 37 °C,completion after 48 h
same,dephosphorylation of tyrosine-OPO3 2- (31P NMR),[1]; 37 °C,completion after 48 h
same,dephosphorylation of threonine-OPO3 2- (31P NMR),"[1]; 37 °C, compared with serine and tyrosine phosphate",much slower
same,hydrolysis of phenyl phosphate dianion (31P NMR),"[1]; after 44 h at 37 °C, 25% DMSO / HEPES",virtually no signal
same,hydrolysis of 4-nitrophenyl phosphate (31P NMR),[1]; following mixing,almost immediate hydrolysis
same,Baseline EACR,"ARPE-19; 1h exposure, Run 1 (Fig. 9c)",18.76
same,Baseline OCR,"ARPE-19; 1h exposure, Run 1 (Fig. 9c)",23.36
same,Stressed EACR,"ARPE-19; 1h exposure, Run 1 (Fig. 9c)",24.63
same,Stressed OCR,"ARPE-19; 1h exposure, Run 1 (Fig. 9c)",30.28
same,Baseline EACR,"ARPE-19; 1h exposure, Run 2 (Fig. 9c)",18.49
same,Baseline OCR,"ARPE-19; 1h exposure, Run 2 (Fig. 9c)",21.88
same,Stressed EACR,"ARPE-19; 1h exposure, Run 2 (Fig. 9c)",25.17
same,Stressed OCR,"ARPE-19; 1h exposure, Run 2 (Fig. 9c)",27.97
same,Baseline EACR,"ARPE-19; 1h exposure, Run 3 (Fig. 9c)",18.70
same,Baseline OCR,"ARPE-19; 1h exposure, Run 3 (Fig. 9c)",20.12
same,Stressed EACR,"ARPE-19; 1h exposure, Run 3 (Fig. 9c)",24.11
same,Stressed OCR,"ARPE-19; 1h exposure, Run 3 (Fig. 9c)",25.60
same,Mean Baseline EACR,ARPE-19; [2],18.65
same,Mean Baseline OCR,ARPE-19; [2],21.79
same,Mean Stressed EACR,ARPE-19; [2],24.64
same,Mean Stressed OCR,ARPE-19; [2],27.95
same,Baseline EACR,"ARPE-19; 20h exposure, Run 1 (Fig. 9d)",13.57
same,Baseline OCR,"ARPE-19; 20h exposure, Run 1 (Fig. 9d)",9.08
same,Stressed EACR,"ARPE-19; 20h exposure, Run 1 (Fig. 9d)",15.01
same,Stressed OCR,"ARPE-19; 20h exposure, Run 1 (Fig. 9d)",12.02
same,Baseline EACR,"ARPE-19; 20h exposure, Run 2 (Fig. 9d)",10.60
same,Baseline OCR,"ARPE-19; 20h exposure, Run 2 (Fig. 9d)",7.37
same,Stressed EACR,"ARPE-19; 20h exposure, Run 2 (Fig. 9d)",11.55
same,Stressed OCR,"ARPE-19; 20h exposure, Run 2 (Fig. 9d)",9.95
same,Baseline EACR,"ARPE-19; 20h exposure, Run 3 (Fig. 9d)",12.23
same,Baseline OCR,"ARPE-19; 20h exposure, Run 3 (Fig. 9d)",7.73
same,Stressed EACR,"ARPE-19; 20h exposure, Run 3 (Fig. 9d)",13.58
same,Stressed OCR,"ARPE-19; 20h exposure, Run 3 (Fig. 9d)",9.28
same,Mean Baseline EACR,ARPE-19; [3],12.13
same,Mean Baseline OCR,ARPE-19; [3],8.06
same,Mean Stressed EACR,ARPE-19; [3],13.38
same,Mean Stressed OCR,ARPE-19; [3],10.41
same,glycolysis (ECAR),"ARPE-19; ARPE-19, 25 μM, 1 h",unaffected
